Laboratory results taken from ChEMBL document CHEMBL1126094, “Iodinated tomoxetine derivatives as selective ligands for serotonin and norepinephrine uptake sites” (J Med Chem, 1992).
Where a name gives a salt, the structure may show the parent alone.

Tests used:
Rattus norvegicus [1] = species on record: Rattus norvegicus; test: Binding affinity against 5-HT uptake site, using [3H]citalopram as radioligand in rat cortical membrane; format: functional
Rattus norvegicus [2] = species on record: Rattus norvegicus; test: Binding affinity against NE uptake site, using [3H]nisoxetine as radioligand in rat striatal membrane; format: functional, Striatum
Rattus norvegicus [3] = species on record: Rattus norvegicus; test: Binding affinity against DA uptake site, using [125I]beta-CIT as radioligand in rat striatal membrane; format: functional, Striatum

SMILES	Ki (Rattus norvegicus [1])	Ki (Rattus norvegicus [2])	Ki (Rattus norvegicus [3])
CNCC[C@H](Oc1ccc(C)cc1I)c1ccccc1	0.00573 µM	0.154 µM	0.41 µM
CNCC[C@H](Oc1ccc(I)cc1C)c1ccccc1	0.0139 µM	1.16 µM	0.636 µM
CNCC[C@@H](Oc1ccccc1I)c1ccccc1	0.0171 µM	0.00024 µM	–
CNCC[C@@H](Oc1ccc(I)cc1C)c1ccccc1	0.00065 µM	0.069 µM	0.845 µM
CNCC[C@@H](Oc1ccc(C)cc1I)c1ccccc1	0.00518 µM	0.0034 µM	11.3 µM
CNCC[C@@H](Oc1ccc(I)c(C)c1)c1ccccc1	0.00069 µM	0.128 µM	0.22 µM
CNCC[C@H](Oc1ccccc1I)c1ccccc1	0.0131 µM	0.00935 µM	–
CNCC[C@@H](Oc1ccccc1C)c1ccccc1 [ATOMOXETINE HYDROCHLORIDE]	0.0251 µM	–	–

Next, values leading:

Ki (Rattus norvegicus [1])	Ki (Rattus norvegicus [2])	Ki (Rattus norvegicus [3])	SMILES
0.0144 µM	0.0014 µM	0.486 µM	CNCC[C@@H](Oc1cccc(I)c1)c1ccccc1
0.00127 µM	0.00321 µM	–	CNCC[C@@H](Oc1ccc(I)cc1)c1ccccc1
0.004 µM	0.0018 µM	0.208 µM	CNCC[C@H](Oc1cccc(I)c1)c1ccccc1
0.0003 µM	0.351 µM	0.2 µM	CNCC[C@H](Oc1ccc(I)c(C)c1)c1ccccc1
0.0008 µM	0.245 µM	–	CNCC[C@H](Oc1ccc(I)cc1)c1ccccc1
